# “And” between values parts separate entries of the source, which are not always exact repeats. Identical values can stand only once.
# System: normal rats
# Experiment: Cardiorenal actions of bolus ANP, CNP, VNP in anesthetized normal rats
# Format: in vivo, rat
# [1] = normal rats, Recovery (after 30 minute washout)
compound,measurement,setting,value
C-type natriuretic peptide (GLSKGCFGLKLDRIGSMSGLGC) [CNP],HR heart rate,"rat, in vivo",363 ± 19 beats/minute and 365 ± 19 beats/minute and 363 ± 16 beats/minute
same,MAP mean arterial pressure,"rat, in vivo",100 ± 12 mmHg and 87 ± 9*+ mmHg and 104 ± 11*¶ mmHg
"CC[C@H](C)[C@@H]1NC(=O)[C@H](CCCNC(=N)N)NC(=O)[C@H](CC(=O)O)NC(=O)[C@H](CCSC)NC(=O)[C@H](CCCNC(=N)N)NC(=O)CNC(=O)CNC(=O)[C@H](Cc2ccccc2)NC(=O)[C@@H](NC(=O)[C@H](CO)NC(=O)[C@H](CO)NC(=O)[C@H](CCCNC(=N)N)NC(=O)[C@H](CCCNC(=N)N)NC(=O)[C@H](CC(C)C)NC(=O)[C@@H](N)CO)CSSC[C@@H](C(=O)N[C@@H](CC(N)=O)C(=O)N[C@@H](CO)C(=O)N[C@@H](Cc2ccccc2)C(=O)N[C@@H](CCCNC(=N)N)C(=O)N[C@@H](Cc2ccc(O)cc2)C(=O)O)NC(=O)CNC(=O)[C@H](CC(C)C)NC(=O)CNC(=O)[C@H](CO)NC(=O)[C@H](CCC(N)=O)NC(=O)[C@H](C)NC(=O)CNC1=O [ANP, Atrial natriuretic peptide]",HR heart rate,"normal rats, 5 μg/kg bolus",353 ± 14 beats/minute
same,MAP mean arterial pressure,"normal rats, 5 μg/kg bolus",97 ± 12 mmHg
same,RAP right atrial pressure,"normal rats, 5 μg/kg bolus",−2.3 ± 0.8 mmHg
same,UKV urine potassium excretion,"normal rats, 5 μg/kg bolus",10.3 ± 3.5 µmol/min
same,UNaV urine sodium excretion,"normal rats, 5 μg/kg bolus",13.2 ± 3.5 µmol/min
same,UV urine volume,"normal rats, 5 μg/kg bolus",79 ± 10 µL/min
same,UcGMPV urine cGMP volume,"normal rats, 5 μg/kg bolus",605 ± 151 pmol/min
same,HR heart rate,"normal rats, 50 μg/kg bolus",355 ± 19 beats/minute
same,MAP mean arterial pressure,"normal rats, 50 μg/kg bolus",69 ± 7*+ mmHg
same,RAP right atrial pressure,"normal rats, 50 μg/kg bolus",−3.8 ± 0.8*+ mmHg
same,UKV urine potassium excretion,"normal rats, 50 μg/kg bolus",24.4 ± 8.7 µmol/min
same,UNaV urine sodium excretion,"normal rats, 50 μg/kg bolus",68.2 ± 15.7*+ μmol/minute
same,UV urine volume,"normal rats, 50 μg/kg bolus",341 ± 41*+ μl/minute
same,UcGMPV urine cGMP volume,"normal rats, 50 μg/kg bolus",2580 ± 505*+ pmol/minute
same,HR heart rate,[1],368 ± 23 beats/minute
same,MAP mean arterial pressure,[1],92 ± 11*¶ mmHg
same,PcGMP plasma cGMP,[1],3.2 − 63¶ pmol/ml
same,RAP right atrial pressure,[1],−0.8 ± 0.9¶ mmHg
same,UKV urine potassium excretion,[1],2.4 ± 0.1 µmol/min
same,UNaV urine sodium excretion,[1],8.9 ± 3.5¶ μmol/minute
same,UV urine volume,[1],48 ± 14¶ μl/minute
same,UcGMPV urine cGMP volume,[1],105 ± 63¶ pmol/minute
vasonatrin peptide [VNP],HR heart rate,"rat, in vivo",393 ± 20 beats/minute and 408 ± 25 beats/minute and 390 ± 20 beats/minute
same,MAP mean arterial pressure,"rat, in vivo",93 ± 15 mmHg and 79 ± 15*+ mmHg and 93 ± 15*¶ mmHg
